In publication PMC11374673, “Discovery of isoquinoline sulfonamides as allosteric gyrase inhibitors with activity against fluoroquinolone-resistant bacteria” (Nature Chemistry, 2024):
Values joined by “and” are separate entries in the source; they are usually repeats but may differ in a detail not shown here. Equal values may be shown once.

System: E. coli
Experiment: Checkerboard assay LEI-800 with CIP;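 note: bacterial growth read as OD600 after 20 h at 37 °C with shaking, each drug pair tested in triplicate wells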
Assay type: cell-based, Escherichia coli
[1] = Ciprofloxacin 0.78125 nM + LEI-800 0 µM
[2] = Ciprofloxacin 0.78125 nM + LEI-800 0.1 µM
[3] = Ciprofloxacin 0.78125 nM + LEI-800 0.2 µM
[4] = Ciprofloxacin 0.78125 nM + LEI-800 0.4 µM
[5] = Ciprofloxacin 0.78125 nM + LEI-800 0.8 µM
[6] = Ciprofloxacin 0.78125 nM + LEI-800 3.1 µM
[7] = Ciprofloxacin 0.78125 nM + LEI-800 6.2 µM
[8] = Ciprofloxacin 1.5625 nM + LEI-800 0 µM
[9] = Ciprofloxacin 1.5625 nM + LEI-800 0.1 µM
[10] = Ciprofloxacin 1.5625 nM + LEI-800 0.2 µM
[11] = Ciprofloxacin 1.5625 nM + LEI-800 0.4 µM
[12] = Ciprofloxacin 1.5625 nM + LEI-800 0.8 µM
[13] = Ciprofloxacin 1.5625 nM + LEI-800 3.1 µM
[14] = Ciprofloxacin 1.5625 nM + LEI-800 6.2 µM
[15] = Ciprofloxacin 12.5 nM + LEI-800 0.2 µM
[16] = Ciprofloxacin 12.5 nM + LEI-800 0.4 µM
[17] = Ciprofloxacin 25 nM + LEI-800 0 µM
[18] = Ciprofloxacin 25 nM + LEI-800 0.1 µM
[19] = Ciprofloxacin 25 nM + LEI-800 0.2 µM
[20] = Ciprofloxacin 25 nM + LEI-800 0.4 µM
[21] = Ciprofloxacin 25 nM + LEI-800 0.8 µM
[22] = Ciprofloxacin 25 nM + LEI-800 3.1 µM
[23] = Ciprofloxacin 25 nM + LEI-800 6.2 µM
[24] = Ciprofloxacin 50 nM + LEI-800 0 µM
[25] = Ciprofloxacin 50 nM + LEI-800 0.1 µM
[26] = Ciprofloxacin 50 nM + LEI-800 0.2 µM
[27] = Ciprofloxacin 50 nM + LEI-800 0.4 µM
[28] = Ciprofloxacin 50 nM + LEI-800 0.8 µM
[29] = Ciprofloxacin 50 nM + LEI-800 3.1 µM
[30] = Ciprofloxacin 50 nM + LEI-800 6.2 µM

SMILES: O=C(O)c1cn(C2CC2)c2cc(N3CCNCC3)c(F)cc2c1=O [CIP, ciprofloxacin]
- checkerboard plate reading, Average values [1]: 0.83
- checkerboard plate reading, replicate wells [1]: 0.8643 and 0.836 and 0.7898
- checkerboard plate reading, Average values [2]: 0.7281
- checkerboard plate reading, replicate wells [2]: 0.7059 and 0.7562 and 0.7221
- checkerboard plate reading, Average values [3]: 0.6917
- checkerboard plate reading, replicate wells [3]: 0.6798 and 0.723 and 0.6723
- checkerboard plate reading, Average values [4]: 0.6669
- checkerboard plate reading, replicate wells [4]: 0.6638 and 0.6554 and 0.6815
- checkerboard plate reading, Average values [5]: 0.5857
- checkerboard plate reading, replicate wells [5]: 0.6064 and 0.5755 and 0.5753
- checkerboard plate reading, Average values [6]: 0.2755
- checkerboard plate reading, replicate wells [6]: 0.2688 and 0.2609 and 0.2967
- checkerboard plate reading, Average values [7]: 0.1492
- checkerboard plate reading, replicate wells [7]: 0.1443 and 0.151 and 0.1523
- checkerboard plate reading, Average values (Ciprofloxacin 0.78125 nM + LEI-800 […]): 0.4707
- checkerboard plate reading, Average values [8]: 0.8174
- checkerboard plate reading, replicate wells [8]: 0.9018 and 0.7912 and 0.7592
- checkerboard plate reading, Average values [9]: 0.71
- checkerboard plate reading, replicate wells [9]: 0.7109 and 0.704 and 0.715
- checkerboard plate reading, Average values [10]: 0.6776
- checkerboard plate reading, replicate wells [10]: 0.667 and 0.7085 and 0.6572
- checkerboard plate reading, Average values [11]: 0.6371
- checkerboard plate reading, replicate wells [11]: 0.6099 and 0.644 and 0.6575
- checkerboard plate reading, Average values [12]: 0.5615
- checkerboard plate reading, replicate wells [12]: 0.5364 and 0.5772 and 0.571
- checkerboard plate reading, Average values [13]: 0.2706
- checkerboard plate reading, replicate wells [13]: 0.2674 and 0.2638 and 0.2807
- checkerboard plate reading, Average values [14]: 0.1458
- checkerboard plate reading, replicate wells [14]: 0.1385 and 0.1476 and 0.1513
- checkerboard plate reading, Average values (Ciprofloxacin 1.5625 nM + LEI-800 […]): 0.4578
- checkerboard plate reading, Average values (Ciprofloxacin 3.125 nM + LEI-800 0 µM): 0.7916
- checkerboard plate reading, Average values (Ciprofloxacin 3.125 nM + LEI-800 0.1 µM): 0.7539
- checkerboard plate reading, Average values (Ciprofloxacin 3.125 nM + LEI-800 0.2 µM): 0.6934
- checkerboard plate reading, Average values (Ciprofloxacin 3.125 nM + LEI-800 0.4 µM): 0.6265
- checkerboard plate reading, Average values (Ciprofloxacin 3.125 nM + LEI-800 0.8 µM): 0.5829
- checkerboard plate reading, Average values (Ciprofloxacin 3.125 nM + LEI-800 3.1 µM): 0.2713
- checkerboard plate reading, Average values (Ciprofloxacin 3.125 nM + LEI-800 6.2 µM): 0.1411
- checkerboard plate reading, Average values (Ciprofloxacin 3.125 nM + LEI-800 […]): 0.464
- checkerboard plate reading, Average values (Ciprofloxacin 6.25 nM + LEI-800 0 µM): 0.8039
- checkerboard plate reading, Average values (Ciprofloxacin 6.25 nM + LEI-800 0.1 µM): 0.6899
- checkerboard plate reading, Average values (Ciprofloxacin 6.25 nM + LEI-800 0.2 µM): 0.6258
- checkerboard plate reading, Average values (Ciprofloxacin 6.25 nM + LEI-800 0.4 µM): 0.6515
- checkerboard plate reading, Average values (Ciprofloxacin 6.25 nM + LEI-800 0.8 µM): 0.573
- checkerboard plate reading, Average values (Ciprofloxacin 6.25 nM + LEI-800 3.1 µM): 0.2841
- checkerboard plate reading, Average values (Ciprofloxacin 6.25 nM + LEI-800 6.2 µM): 0.1541
- checkerboard plate reading, Average values (Ciprofloxacin 6.25 nM + LEI-800 […]): 0.4469
- checkerboard plate reading, Average values (Ciprofloxacin 12.5 nM + LEI-800 0 µM): 0.8165
- checkerboard plate reading, Average values (Ciprofloxacin 12.5 nM + LEI-800 0.1 µM): 0.6889
- checkerboard plate reading, Average values [15]: 0.6272
- checkerboard plate reading, replicate wells [15]: 0.6163
- checkerboard plate reading, Average values [16]: 0.6342
- checkerboard plate reading, replicate wells [16]: 0.6092 and 0.6266 and 0.6669
- checkerboard plate reading, Average values (Ciprofloxacin 12.5 nM + LEI-800 0.8 µM): 0.6048
- checkerboard plate reading, Average values (Ciprofloxacin 12.5 nM + LEI-800 3.1 µM): 0.2553
- checkerboard plate reading, Average values (Ciprofloxacin 12.5 nM + LEI-800 6.2 µM): 0.142
- checkerboard plate reading, Average values (Ciprofloxacin 12.5 nM + LEI-800 […]): 0.4663
- checkerboard plate reading, Average values [17]: 0.8434
- checkerboard plate reading, replicate wells [17]: 0.9002 and 0.8407 and 0.7891
- checkerboard plate reading, Average values [18]: 0.7231
- checkerboard plate reading, replicate wells [18]: 0.7425 and 0.7229 and 0.7038
- checkerboard plate reading, Average values [19]: 0.6746
- checkerboard plate reading, replicate wells [19]: 0.7088 and 0.6616 and 0.6533
- checkerboard plate reading, Average values [20]: 0.6549
- checkerboard plate reading, replicate wells [20]: 0.6481 and 0.6316 and 0.685
- checkerboard plate reading, Average values [21]: 0.6861
- checkerboard plate reading, replicate wells [21]: 0.7976 and 0.6273 and 0.6333
- checkerboard plate reading, Average values [22]: 0.2871
- checkerboard plate reading, replicate wells [22]: 0.2705 and 0.2575 and 0.3334
- checkerboard plate reading, Average values [23]: 0.1517
- checkerboard plate reading, replicate wells [23]: 0.149 and 0.1483 and 0.1579
- checkerboard plate reading, Average values (Ciprofloxacin 25 nM + LEI-800 […]): 0.5325
- checkerboard plate reading, Average values [24]: 0.8946
- checkerboard plate reading, replicate wells [24]: 0.9376 and 0.8747 and 0.8715
- checkerboard plate reading, Average values [25]: 0.7443
- checkerboard plate reading, replicate wells [25]: 0.7759 and 0.7241 and 0.7328
- checkerboard plate reading, Average values [26]: 0.6725
- checkerboard plate reading, replicate wells [26]: 0.6624 and 0.6684 and 0.6868
- checkerboard plate reading, Average values [27]: 0.6531
- checkerboard plate reading, replicate wells [27]: 0.6441 and 0.64 and 0.6751
- checkerboard plate reading, Average values [28]: 0.7311
- checkerboard plate reading, replicate wells [28]: 0.701 and 0.7232 and 0.7691
- checkerboard plate reading, Average values [29]: 0.2841
- checkerboard plate reading, replicate wells [29]: 0.2522 and 0.2675 and 0.3325
- checkerboard plate reading, Average values [30]: 0.151
- checkerboard plate reading, replicate wells [30]: 0.1483 and 0.1495 and 0.1553
- checkerboard plate reading, Average values (Ciprofloxacin 50 nM + LEI-800 […]): 0.6545
